Several values for one entry are separate records, joined by “and”; a condition that tells them apart may be missing. Identical values can stand only once. Like-named read-outs stand apart in the source and are kept apart here.
Legend:
[1] = molecular target: T1, Human recombinant PDE2A (hPDE2A) (Homo sapiens, UniProt O00408); assay: In vitro assay PDE2A (SPA, 3H-cGMP hydrolysis); assay type: biochemical; conditions: for Emax: read-out: hPDE2A Emax
T1 construct: His tag (inferred from metal chelate purification); made in house; host or cells: Sf9 insect cells (baculovirus)

[2] = molecular target: T2, Human recombinant PDE3A (hPDE3A) (Homo sapiens, UniProt Q14432); assay: In vitro assay PDE3A (SPA, 3H-cAMP hydrolysis); assay type: biochemical; conditions: for IC50: hPDE3B pIC50, read-out: pIC50 (converted); for Emax: read-out: hPDE3B Emax, read-out: Emax;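 for all read-outs here: the method names PDE3A and the table heading PDE3B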
T2 construct: purchased Scottish Biomedical; host or cells: Sf9 insect cells
Summary of the method: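 Human PDE3A, cloned from brain, as partially purified Sf9 lysate. Substrate 0.4 μM cAMP plus [3H]-cAMP (2.4 μCi/ml final) in 50 mM Tris pH 7.8, 8.3 mM MgCl2, 1.7 mM EGTA, 60 min at room temperature, 1% DMSO final. Hydrolysis read by SPA scintillation counting against no-enzyme blanks and DMSO controls.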

[3] = molecular target: T3, Human recombinant PDE10A (hPDE10A) (Homo sapiens, UniProt Q9Y233); assay: In vitro assay PDE10A, human clone (SPA, 3H-cAMP hydrolysis); assay type: biochemical
T3 construct: His tag (inferred from metal chelate purification); made in house; host or cells: Sf9 insect cells (baculovirus)
Summary of the method: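 Human recombinant PDE10A was expressed in Sf9 cells via baculovirus and incubated with compound in 50 mM Tris pH 7.8, 8.3 mM MgCl2, 1.7 mM EGTA. Substrate was 60 nM cAMP plus 0.008 μCi 3H-cAMP for 60 min at room temperature, read by SPA scintillation counting. Controls used 1% DMSO, and blanks omitted enzyme.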

[4] = molecular target: T4, PDE2A (Rattus norvegicus, UniProt Q01062); assay: PDE2 occupancy by test compounds, ex-vivo autoradiography with [3H]B-17a; assay type: in vivo, Male Wistar rats; conditions: for ED50: read-out: PDE Occupancy ED50
T4 construct: Twenty μm-thick striatal sections were cut; from tissue; host or cells: rat brain, striatal sections
T4 sequence (Q01062 1-928): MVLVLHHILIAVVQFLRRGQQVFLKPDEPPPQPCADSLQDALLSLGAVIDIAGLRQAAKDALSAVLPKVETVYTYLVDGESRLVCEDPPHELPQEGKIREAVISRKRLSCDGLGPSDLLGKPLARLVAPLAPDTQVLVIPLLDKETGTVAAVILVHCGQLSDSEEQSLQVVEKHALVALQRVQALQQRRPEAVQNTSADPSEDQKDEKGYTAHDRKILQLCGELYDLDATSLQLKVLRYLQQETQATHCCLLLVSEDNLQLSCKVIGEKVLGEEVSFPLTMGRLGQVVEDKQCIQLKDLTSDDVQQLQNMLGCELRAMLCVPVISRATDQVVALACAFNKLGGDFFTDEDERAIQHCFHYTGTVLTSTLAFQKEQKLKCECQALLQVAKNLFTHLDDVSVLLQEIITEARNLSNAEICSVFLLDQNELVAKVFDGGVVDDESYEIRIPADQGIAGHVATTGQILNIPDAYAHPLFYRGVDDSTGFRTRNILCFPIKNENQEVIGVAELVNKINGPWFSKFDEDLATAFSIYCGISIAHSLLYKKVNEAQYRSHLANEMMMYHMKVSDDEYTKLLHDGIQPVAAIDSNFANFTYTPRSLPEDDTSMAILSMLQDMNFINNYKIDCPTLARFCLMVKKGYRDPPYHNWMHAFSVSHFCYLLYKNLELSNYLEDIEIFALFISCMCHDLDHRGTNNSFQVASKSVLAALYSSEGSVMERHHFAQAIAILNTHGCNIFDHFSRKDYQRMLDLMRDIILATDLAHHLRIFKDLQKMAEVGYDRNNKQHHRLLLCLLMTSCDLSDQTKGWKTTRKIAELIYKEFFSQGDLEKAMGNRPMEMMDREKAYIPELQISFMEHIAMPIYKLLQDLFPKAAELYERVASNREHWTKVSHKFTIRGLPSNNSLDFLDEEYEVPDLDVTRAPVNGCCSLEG

[5] = read-out: hPDE2A pIC50 (converted)
[6] = human clone by default (no (r) mark), read-out: hPDE10A2 or rPDE10A2 Emax
[7] = human clone by default (no (r) mark), read-out: hPDE10A2 or rPDE10A2 pIC50 (converted)
[8] = 10 mg/kg, route PO (oral), percentage receptor occupancy, ex-vivo autoradiography, striatum
[9] = human recombinant PDE2A, 10 μM cGMP substrate, read-out: hPDE2A pIC50 (converted)
[10] = human clone (h), default, read-out: hPDE10A2 Emax
[11] = human clone (h), default, read-out: hPDE10A2 pIC50 (converted)
[12] = sc, 10 mg/kg, route SC (subcutaneous), percentage receptor occupancy, ex-vivo autoradiography, striatum
[13] = po, 10 mg/kg, route PO (oral), percentage receptor occupancy, ex-vivo autoradiography, striatum
[14] = route PO (oral), drug dose producing 50% receptor occupancy
[15] = hPDE2A pIC50, human recombinant PDE2A, 10 μM cGMP substrate

T3 sequence (Q9Y233 267-1055): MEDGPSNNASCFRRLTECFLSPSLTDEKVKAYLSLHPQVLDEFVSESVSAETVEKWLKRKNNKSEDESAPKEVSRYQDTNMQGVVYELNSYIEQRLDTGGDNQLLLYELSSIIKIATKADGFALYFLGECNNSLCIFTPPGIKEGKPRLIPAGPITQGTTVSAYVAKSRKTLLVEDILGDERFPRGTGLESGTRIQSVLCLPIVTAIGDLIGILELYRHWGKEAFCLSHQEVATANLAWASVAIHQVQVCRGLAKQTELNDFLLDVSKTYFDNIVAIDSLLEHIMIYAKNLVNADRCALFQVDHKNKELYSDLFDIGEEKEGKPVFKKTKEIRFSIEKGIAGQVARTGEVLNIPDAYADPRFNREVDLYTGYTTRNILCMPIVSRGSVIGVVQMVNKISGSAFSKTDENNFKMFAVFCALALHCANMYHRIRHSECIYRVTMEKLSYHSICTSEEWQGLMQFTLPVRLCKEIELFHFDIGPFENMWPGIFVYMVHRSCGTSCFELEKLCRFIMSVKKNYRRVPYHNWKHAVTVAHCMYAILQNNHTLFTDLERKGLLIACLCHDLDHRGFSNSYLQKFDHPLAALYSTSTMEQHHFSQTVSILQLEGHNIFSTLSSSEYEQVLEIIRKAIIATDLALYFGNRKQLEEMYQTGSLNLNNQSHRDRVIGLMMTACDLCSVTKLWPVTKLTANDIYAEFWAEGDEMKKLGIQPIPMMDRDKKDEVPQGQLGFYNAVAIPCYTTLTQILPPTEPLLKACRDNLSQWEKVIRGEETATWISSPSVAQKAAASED
T1 sequence (O00408 whole entry): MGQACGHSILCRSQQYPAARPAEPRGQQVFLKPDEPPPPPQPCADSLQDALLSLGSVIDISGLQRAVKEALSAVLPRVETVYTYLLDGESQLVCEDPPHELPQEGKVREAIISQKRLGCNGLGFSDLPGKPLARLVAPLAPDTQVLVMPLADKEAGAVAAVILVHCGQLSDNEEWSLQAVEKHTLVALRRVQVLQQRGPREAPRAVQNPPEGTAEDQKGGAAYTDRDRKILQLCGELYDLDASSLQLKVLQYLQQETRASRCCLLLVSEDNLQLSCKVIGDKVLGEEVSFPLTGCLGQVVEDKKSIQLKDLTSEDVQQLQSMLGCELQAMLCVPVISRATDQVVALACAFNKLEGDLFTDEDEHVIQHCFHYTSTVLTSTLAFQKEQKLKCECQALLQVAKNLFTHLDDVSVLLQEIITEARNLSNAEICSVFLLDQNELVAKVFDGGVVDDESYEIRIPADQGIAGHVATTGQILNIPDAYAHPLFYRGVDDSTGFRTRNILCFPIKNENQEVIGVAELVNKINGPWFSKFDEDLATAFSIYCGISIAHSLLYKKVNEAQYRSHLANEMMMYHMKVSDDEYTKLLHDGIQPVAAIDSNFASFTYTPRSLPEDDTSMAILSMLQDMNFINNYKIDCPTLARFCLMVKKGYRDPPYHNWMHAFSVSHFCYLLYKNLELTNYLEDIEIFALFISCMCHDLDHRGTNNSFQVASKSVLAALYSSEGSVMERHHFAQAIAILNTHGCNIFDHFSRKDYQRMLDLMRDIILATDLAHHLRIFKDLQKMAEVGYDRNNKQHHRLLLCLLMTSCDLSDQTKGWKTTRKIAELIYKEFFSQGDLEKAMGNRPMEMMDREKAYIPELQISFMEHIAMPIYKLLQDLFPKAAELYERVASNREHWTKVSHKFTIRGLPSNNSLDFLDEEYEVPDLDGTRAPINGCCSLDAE
T2 sequence (Q14432 whole entry): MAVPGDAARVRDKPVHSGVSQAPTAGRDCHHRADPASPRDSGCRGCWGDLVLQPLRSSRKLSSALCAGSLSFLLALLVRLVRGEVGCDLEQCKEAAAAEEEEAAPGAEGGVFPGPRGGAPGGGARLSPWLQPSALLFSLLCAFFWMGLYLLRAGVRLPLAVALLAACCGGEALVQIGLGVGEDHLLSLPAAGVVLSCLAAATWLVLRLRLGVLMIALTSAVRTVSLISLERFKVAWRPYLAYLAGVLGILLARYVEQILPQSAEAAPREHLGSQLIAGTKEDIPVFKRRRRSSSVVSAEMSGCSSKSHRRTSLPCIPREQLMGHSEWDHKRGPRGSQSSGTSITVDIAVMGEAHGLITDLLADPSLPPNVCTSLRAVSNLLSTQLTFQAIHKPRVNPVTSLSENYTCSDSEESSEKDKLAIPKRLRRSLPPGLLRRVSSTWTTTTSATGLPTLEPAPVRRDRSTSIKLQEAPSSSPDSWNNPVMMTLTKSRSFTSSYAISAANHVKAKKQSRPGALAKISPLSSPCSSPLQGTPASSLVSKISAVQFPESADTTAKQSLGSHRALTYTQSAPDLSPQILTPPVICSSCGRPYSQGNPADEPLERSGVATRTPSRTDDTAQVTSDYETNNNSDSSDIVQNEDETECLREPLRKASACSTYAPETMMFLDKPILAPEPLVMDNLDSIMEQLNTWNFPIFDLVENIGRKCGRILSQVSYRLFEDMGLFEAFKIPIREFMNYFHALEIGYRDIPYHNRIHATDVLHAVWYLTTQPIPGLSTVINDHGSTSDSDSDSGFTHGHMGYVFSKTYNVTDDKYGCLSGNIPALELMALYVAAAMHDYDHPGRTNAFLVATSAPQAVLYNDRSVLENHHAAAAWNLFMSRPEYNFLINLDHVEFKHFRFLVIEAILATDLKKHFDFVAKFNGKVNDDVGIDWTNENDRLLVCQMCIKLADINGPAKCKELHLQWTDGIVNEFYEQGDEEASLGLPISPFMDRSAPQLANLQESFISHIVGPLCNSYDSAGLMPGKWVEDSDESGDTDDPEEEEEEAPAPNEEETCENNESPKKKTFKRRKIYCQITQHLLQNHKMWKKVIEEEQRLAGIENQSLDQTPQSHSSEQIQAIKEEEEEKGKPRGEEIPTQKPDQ

Cn1ccc2cc(C(=O)N3[C@H]4CC[C@H](c5cc(C(F)F)nc6ncnn56)[C@@H]3CC4)ccc21 [Compound 295]
Emax [1]: 101%
IC50 [1, 5]: 0.49 nM
IC50 [2]: 977 nM
Emax [2]: 94%
Emax [3, 6]: 98%
IC50 [3, 7]: 245 nM
receptor occupancy at 10 mg/kg [4, 8]: 71%
ED50 ([4]; po): 5.63 mg/kg
melting point: 178.8 °C

C[C@@H]1CCN(C(=O)c2ccc3ocnc3c2)C[C@H]1c1cc(C(F)F)nc2ncnn12 [Compound 116]
IC50 [1, 9]: 1.15 nM and 1.12 nM
Emax ([1]; human recombinant PDE2A): 100%
Emax [1]: 101%
IC50 [1, 5]: 1.12 nM
IC50 [2]: 2190 nM
Emax [2]: 82%
hPDE10A2 Emax ([3]; human clone (h), default): 98
Emax [3, 10]: 99%
IC50 [3, 11]: 9.77 nM and 79.4 nM
receptor occupancy at 10 mg/kg [4, 12]: 3%
melting point: 192.09 °C

COc1c(C)cc(C(=O)N2CC[C@@H](C)[C@H](c3cc(C(F)F)nc4ncnn34)C2)cc1C [Compound 77]
IC50 [1, 9]: 0.457 nM
Emax ([1]; human recombinant PDE2A): 101%
Emax [1]: 101%
IC50 [1, 5]: 0.457 nM
IC50 [2]: 676 nM
Emax [2]: 96%
Emax [3, 10]: 98%
IC50 [3, 11]: 83.2 nM
receptor occupancy at 10 mg/kg [4, 13]: 54%
ED50 [4, 14]: 5.67 mg/kg
melting point: 177.37 °C

O=C(c1ccc2occc2c1)N1[C@H]2CC[C@H](c3cc(C(F)F)nc4ncnn34)[C@@H]1CC2 [Compound 353]
Emax [1]: 99%
IC50 [1, 5]: 3.39 nM
IC50 [2]: 4790 nM
Emax [2]: 69%
Emax [3, 6]: 94%
IC50 [3, 7]: 977 nM
receptor occupancy at 10 mg/kg [4, 8]: 15%
melting point: 230.66 °C

Cc1nc2ccc(C(=O)N3CC[C@@H](C)[C@H](c4cc(C(F)F)nc5ncnn45)C3)cc2o1 [Compound 127]
IC50 [1, 9]: 2.24 nM
Emax ([1]; human recombinant PDE2A): 99%
Emax [1]: 99%
IC50 [1, 5]: 2.24 nM
IC50 [2]: 437 nM
Emax [2]: 94%
Emax [3, 10]: 99%
IC50 [3, 11]: 25.7 nM
receptor occupancy at 10 mg/kg [4, 13]: 34%
receptor occupancy at 10 mg/kg [4, 12]: 53%
melting point: 139.13 °C

COc1cc(C(=O)N2CC[C@@H](C)[C@H](c3cc(C)nc4ncnn34)C2)cc(Cl)n1 [Compound 22]
IC50 ([1]; hPDE2A pIC50): 2.34 nM
IC50 [1, 15]: 2.34 nM
Emax [1]: 100%
IC50 [2]: 1510 nM
Emax [2]: 87%
Emax [3, 10]: 99%
IC50 [3, 11]: 15.8 nM
PDE2 Occupancy at 10 mg/kg [4, 8]: 30
receptor occupancy at 10 mg/kg [4, 13]: 18%
melting point: 217.82 °C

Cc1cnc(C(F)(F)F)cc1C(=O)N1CC[C@@H](C)[C@H](c2cc(C(F)F)nc3ncnn23)C1 [Compound 52]
IC50 [1, 9]: 13.8 nM
Emax ([1]; human recombinant PDE2A): 101%
Emax [1]: 101%
IC50 [1, 5]: 13.8 nM
IC50 [2]: > 10000 nM
Emax [2]: 22%
Emax [3, 10]: 76%
IC50 [3, 11]: 3020 nM
receptor occupancy at 10 mg/kg [4, 13]: 2%
melting point: 228.39 °C

COc1cc(C(=O)N2CC[C@@H](C)[C@H](c3cc(C(F)F)nc4ncnn34)C2)ccc1Cl [Compound 130]
IC50 [1, 9]: 2.45 nM
Emax ([1]; human recombinant PDE2A): 100%
Emax [1]: 100%
IC50 [1, 5]: 2.45 nM
IC50 [2]: 1740 nM
Emax [2]: 87%
Emax [3, 10]: 96%
IC50 [3, 11]: 135 nM
receptor occupancy at 10 mg/kg [4, 13]: 0%
melting point: 193.85 °C

COc1cc(C(=O)N2CC[C@@H](C)[C@H](c3cc(C(F)F)nc4ncnn34)C2)cc(C(C)C)n1 [Compound 122]
IC50 [1, 9]: 1.86 nM
Emax ([1]; human recombinant PDE2A): 100%
Emax [1]: 100%
IC50 [1, 5]: 1.86 nM
IC50 [2]: 1820 nM
Emax [2]: 86%
Emax [3, 10]: 100%
IC50 [3, 11]: 74.1 nM
receptor occupancy at 10 mg/kg [4, 13]: 0%
melting point: 160.2 °C

C[C@@H]1CCN(C(=O)c2cc3ccccc3o2)C[C@H]1c1cc(C(F)F)nc2ncnn12 [Compound 69]
IC50 [1, 9]: 0.407 nM
Emax ([1]; human recombinant PDE2A): 102%
Emax [1]: 102%
IC50 [1, 5]: 0.407 nM
IC50 [2]: 380 nM
Emax [2]: 95%
Emax [3, 10]: 100%
IC50 [3, 11]: 45.7 nM
receptor occupancy at 10 mg/kg [4, 13]: 0%
melting point: 209.73 °C

COc1ccc(C(=O)N2CC[C@@H](C)[C@H](c3cc(C(F)F)nc4ncnn34)C2)cc1OC(F)F [Compound 133]
IC50 [1, 9]: 2.95 nM
Emax ([1]; human recombinant PDE2A): 100%
Emax [1]: 100%
IC50 [1, 5]: 2.95 nM
IC50 [2]: 1620 nM
Emax [2]: 85%
Emax [3, 10]: 98%
IC50 [3, 11]: 135 nM
receptor occupancy at 10 mg/kg [4, 13]: -19%
melting point: 152.33 °C

Cc1cc([C@@H]2CN(C(=O)c3cc(C4CC4)ncc3F)CC[C@H]2C)n2ncnc2n1 [Compound 224]
Emax [1]: 100%
IC50 [1, 5]: 3.02 nM
IC50 [2]: 1050 nM
Emax [2]: 87%
Emax [3, 6]: 99%
IC50 [3, 7]: 70.8 nM
receptor occupancy at 10 mg/kg [4, 13]: -6%
melting point: 153.14 °C

O=C(c1cnc2c(Cl)cccc2c1)N1[C@H]2CC[C@H](c3cc(C(F)F)nc4ncnn34)[C@@H]1CC2 [Compound 310]
Emax [1]: 100%
IC50 [1, 5]: 1.41 nM
IC50 [2]: 3890 nM
Emax [2]: 78%
Emax [3, 6]: 95%
IC50 [3, 7]: 398 nM
receptor occupancy at 10 mg/kg [4, 8]: 52%
ED50 ([4]; po): 9.6 mg/kg
melting point: 240.9 °C

CCn1ccc2cc(C(=O)N3[C@H]4CC[C@H](c5cc(C(F)F)nc6ncnn56)[C@@H]3CC4)ccc21 [Compound 363]
Emax [1]: 99%
IC50 [1, 5]: 0.275 nM
IC50 [2]: 617 nM
Emax [2]: 97%
Emax [3, 6]: 98%
IC50 [3, 7]: 178 nM
receptor occupancy at 10 mg/kg [4, 8]: -11%
melting point: 221.75 °C

COc1cc(C(=O)N2CC[C@@H](C)[C@H](c3cc(C)nc4ncnn34)C2)c(F)cn1 [Compound 225]
Emax [1]: 99%
IC50 [1, 5]: 11.5 nM
IC50 [2]: 1780 nM
Emax [2]: 83%
Emax [3, 6]: 98%
IC50 [3, 7]: 93.3 nM
receptor occupancy at 10 mg/kg [4, 13]: -6%
melting point: 178.64 °C

C[C@@H]1CCN(C(=O)c2ccc3ncc(F)cc3c2)C[C@H]1c1cc(C(F)F)nc2ncnn12 [Compound 332]
Emax [1]: 99%
IC50 [1, 5]: 4.79 nM
IC50 [2]: 1200 nM
Emax [2]: 90%
Emax [3, 6]: 98%
IC50 [3, 7]: 30.9 nM
receptor occupancy at 10 mg/kg [4, 13]: 8%
melting point: 183.18 °C

COc1nc(C)cc(C(=O)N2CC[C@@H](C)[C@H](c3cc(C(F)F)nc4ncnn34)C2)c1F [Compound 282]
Emax [1]: 100%
IC50 [1, 5]: 2.88 nM
IC50 [2]: 1700 nM
Emax [2]: 88%
Emax [3, 6]: 98%
IC50 [3, 7]: 275 nM
receptor occupancy at 10 mg/kg [4, 13]: 47%
ED50 [4, 14]: 11.8 mg/kg
melting point: 193.33 °C

Cc1cc(C(=O)N2CC[C@@H](C)[C@H](c3cc(C(F)F)nc4ncnn34)C2)cc(Cl)c1F [Compound 129]
IC50 ([1]; hPDE2A pIC50): 2.29 nM
IC50 [1, 15]: 2.29 nM
Emax [1]: 101%
IC50 [2]: 1950 nM
Emax [2]: 85%
Emax [3, 10]: 99%
IC50 [3, 11]: 91.2 nM
receptor occupancy at 10 mg/kg [4, 13]: 21%
melting point: 140.78 °C
